Settings: Liquid, Vibrating tube method

Cc1ccccc1O [2-methylphenol]
Settings	mass density [kg/m3]
313.2 K, 1022 kPa	1027.5
313.2 K, 2031 kPa	1028.1
313.2 K, 3017 kPa	1028.7
313.2 K, 4012 kPa	1029.2
313.2 K, 5018 kPa	1029.8
313.2 K, 6010 kPa	1030.4
313.2 K, 7005 kPa	1030.9
313.2 K, 8006 kPa	1031.5
313.2 K, 9004 kPa	1032
313.2 K, 10005 kPa	1032.6
323.16 K, 1013 kPa	1018.7
323.16 K, 2039 kPa	1019.3
323.16 K, 3007 kPa	1019.9
323.16 K, 4009 kPa	1020.5
323.16 K, 5005 kPa	1021.1
323.16 K, 6004 kPa	1021.7
323.16 K, 6999 kPa	1022.2
323.16 K, 8008 kPa	1022.8
323.16 K, 9002 kPa	1023.4
323.16 K, 10005 kPa	1024
333.1 K, 1010 kPa	1009.9
333.1 K, 2033 kPa	1010.5
333.1 K, 3009 kPa	1011.1
333.1 K, 4014 kPa	1011.8
333.1 K, 5004 kPa	1012.4
333.1 K, 5998 kPa	1013
333.1 K, 7000 kPa	1013.6
333.1 K, 8009 kPa	1014.2
333.1 K, 9004 kPa	1014.8
333.1 K, 10010 kPa	1015.4
343.06 K, 1023 kPa	1000.8
343.06 K, 2024 kPa	1001.6
343.06 K, 3015 kPa	1002.2
343.06 K, 4003 kPa	1002.9
343.06 K, 5009 kPa	1003.6
343.06 K, 6005 kPa	1004.2
343.06 K, 7008 kPa	1004.8
343.06 K, 8003 kPa	1005.5
343.06 K, 8999 kPa	1006.1
343.06 K, 10004 kPa	1006.7
352.99 K, 1043 kPa	991.9
352.99 K, 2000 kPa	992.6
352.99 K, 3034 kPa	993.3
352.99 K, 4015 kPa	994
352.99 K, 5033 kPa	994.6
352.99 K, 6007 kPa	995.3
352.99 K, 7016 kPa	996
352.99 K, 8006 kPa	996.7
352.99 K, 9015 kPa	997.3
352.99 K, 10014 kPa	998

— the NIST ThermoML archive (doi:10.1021/je400055v)
